Measured values from ChEMBL document CHEMBL1909046, “DrugMatrix in vitro pharmacology data”.

What was measured:
[1] = molecular target: T1, Nitric oxide synthase, inducible (Mus musculus, UniProt P29477); parameters: species or system Escherichia coli;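 also: inhibition of iNOS enzyme activity measured with L-arginine as substrate; in other assays of this panel Not Active means under 50% inhibition at 10 µM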
T1 sequence (P29477 whole entry): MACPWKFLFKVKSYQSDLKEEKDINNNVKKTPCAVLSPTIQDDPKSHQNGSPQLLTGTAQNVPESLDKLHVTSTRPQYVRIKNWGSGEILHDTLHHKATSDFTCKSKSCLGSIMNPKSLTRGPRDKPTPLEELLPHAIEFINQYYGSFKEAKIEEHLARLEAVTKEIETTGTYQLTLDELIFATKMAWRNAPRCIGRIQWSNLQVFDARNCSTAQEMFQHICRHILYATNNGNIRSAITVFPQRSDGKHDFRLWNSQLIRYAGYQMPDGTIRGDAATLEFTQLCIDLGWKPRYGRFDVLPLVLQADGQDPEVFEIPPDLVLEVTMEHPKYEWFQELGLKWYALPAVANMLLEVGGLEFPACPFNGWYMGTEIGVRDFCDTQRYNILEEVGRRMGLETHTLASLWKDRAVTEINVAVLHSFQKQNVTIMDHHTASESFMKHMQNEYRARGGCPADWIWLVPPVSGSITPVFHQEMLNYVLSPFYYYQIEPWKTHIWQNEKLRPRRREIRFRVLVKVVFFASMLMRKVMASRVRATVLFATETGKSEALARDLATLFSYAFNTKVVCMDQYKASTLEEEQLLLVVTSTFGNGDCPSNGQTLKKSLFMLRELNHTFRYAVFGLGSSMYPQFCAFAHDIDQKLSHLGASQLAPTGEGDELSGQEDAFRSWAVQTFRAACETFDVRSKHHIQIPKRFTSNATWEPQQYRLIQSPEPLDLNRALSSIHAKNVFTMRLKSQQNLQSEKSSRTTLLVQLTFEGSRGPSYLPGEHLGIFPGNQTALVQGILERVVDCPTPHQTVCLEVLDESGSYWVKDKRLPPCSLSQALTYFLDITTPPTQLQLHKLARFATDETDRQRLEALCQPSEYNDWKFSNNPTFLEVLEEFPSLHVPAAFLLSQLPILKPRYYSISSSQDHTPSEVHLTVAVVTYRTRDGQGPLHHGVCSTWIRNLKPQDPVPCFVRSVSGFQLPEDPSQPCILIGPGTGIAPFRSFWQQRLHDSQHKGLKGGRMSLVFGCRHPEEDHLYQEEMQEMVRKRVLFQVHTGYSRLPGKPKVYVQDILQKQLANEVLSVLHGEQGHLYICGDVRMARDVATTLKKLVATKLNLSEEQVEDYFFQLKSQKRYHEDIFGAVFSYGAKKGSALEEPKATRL

[2] = molecular target: C-C chemokine receptor type 2 (Homo sapiens, UniProt P41597); format: cell membranes, Membrane; details: cho-k1; also: in other assays of this panel Not Active means under 50% inhibition at 10 µM
C-C chemokine receptor type 2, sequence (P41597 whole entry): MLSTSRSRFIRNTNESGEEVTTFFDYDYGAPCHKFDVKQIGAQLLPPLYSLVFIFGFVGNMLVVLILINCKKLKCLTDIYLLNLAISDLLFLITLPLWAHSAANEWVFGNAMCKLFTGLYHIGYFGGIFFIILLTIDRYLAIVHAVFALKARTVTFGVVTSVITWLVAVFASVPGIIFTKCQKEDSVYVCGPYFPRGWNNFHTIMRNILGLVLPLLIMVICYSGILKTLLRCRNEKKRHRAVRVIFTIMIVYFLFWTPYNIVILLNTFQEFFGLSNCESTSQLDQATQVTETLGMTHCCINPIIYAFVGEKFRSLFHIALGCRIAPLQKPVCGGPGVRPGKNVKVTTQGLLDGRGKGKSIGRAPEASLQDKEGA

[3] = molecular target: T2, C-X-C chemokine receptor type 2 (Homo sapiens, UniProt P25025); format: cell membranes, Membrane; details: cho-k1; also: in other assays of this panel Not Active means under 50% inhibition at 10 µM
T2 sequence (P25025 whole entry): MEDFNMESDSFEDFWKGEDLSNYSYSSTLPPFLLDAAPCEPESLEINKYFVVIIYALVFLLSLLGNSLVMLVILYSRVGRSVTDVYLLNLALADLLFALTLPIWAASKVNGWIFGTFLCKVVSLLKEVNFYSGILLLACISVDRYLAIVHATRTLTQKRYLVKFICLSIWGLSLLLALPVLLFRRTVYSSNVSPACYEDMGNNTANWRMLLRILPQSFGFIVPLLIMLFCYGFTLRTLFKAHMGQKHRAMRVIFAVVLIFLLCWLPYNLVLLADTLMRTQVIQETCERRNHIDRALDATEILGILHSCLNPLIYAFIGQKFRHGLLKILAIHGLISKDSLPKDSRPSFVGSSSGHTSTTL

[4] = molecular target: Melanocortin receptor 5 (Homo sapiens, UniProt P33032); format: cell membranes, HEK293, Membrane; details: hek293; also: in other assays of this panel Not Active means under 50% inhibition at 10 µM
Melanocortin receptor 5, sequence (P33032 whole entry): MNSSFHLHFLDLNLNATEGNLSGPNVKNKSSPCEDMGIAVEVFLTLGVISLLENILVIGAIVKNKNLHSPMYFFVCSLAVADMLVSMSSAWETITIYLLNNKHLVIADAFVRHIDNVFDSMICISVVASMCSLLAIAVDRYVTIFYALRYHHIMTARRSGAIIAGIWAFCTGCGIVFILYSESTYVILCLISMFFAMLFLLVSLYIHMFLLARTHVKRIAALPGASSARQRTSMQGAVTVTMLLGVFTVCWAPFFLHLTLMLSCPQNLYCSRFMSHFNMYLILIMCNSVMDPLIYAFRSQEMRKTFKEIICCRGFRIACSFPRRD

[5] = molecular target: Voltage-gated inwardly rectifying potassium channel KCNH2 (Homo sapiens, UniProt Q12809); details: hek293; also: in other assays of this panel Not Active means under 50% inhibition at 10 µM
Voltage-gated inwardly rectifying potassium channel KCNH2, sequence (Q12809 whole entry): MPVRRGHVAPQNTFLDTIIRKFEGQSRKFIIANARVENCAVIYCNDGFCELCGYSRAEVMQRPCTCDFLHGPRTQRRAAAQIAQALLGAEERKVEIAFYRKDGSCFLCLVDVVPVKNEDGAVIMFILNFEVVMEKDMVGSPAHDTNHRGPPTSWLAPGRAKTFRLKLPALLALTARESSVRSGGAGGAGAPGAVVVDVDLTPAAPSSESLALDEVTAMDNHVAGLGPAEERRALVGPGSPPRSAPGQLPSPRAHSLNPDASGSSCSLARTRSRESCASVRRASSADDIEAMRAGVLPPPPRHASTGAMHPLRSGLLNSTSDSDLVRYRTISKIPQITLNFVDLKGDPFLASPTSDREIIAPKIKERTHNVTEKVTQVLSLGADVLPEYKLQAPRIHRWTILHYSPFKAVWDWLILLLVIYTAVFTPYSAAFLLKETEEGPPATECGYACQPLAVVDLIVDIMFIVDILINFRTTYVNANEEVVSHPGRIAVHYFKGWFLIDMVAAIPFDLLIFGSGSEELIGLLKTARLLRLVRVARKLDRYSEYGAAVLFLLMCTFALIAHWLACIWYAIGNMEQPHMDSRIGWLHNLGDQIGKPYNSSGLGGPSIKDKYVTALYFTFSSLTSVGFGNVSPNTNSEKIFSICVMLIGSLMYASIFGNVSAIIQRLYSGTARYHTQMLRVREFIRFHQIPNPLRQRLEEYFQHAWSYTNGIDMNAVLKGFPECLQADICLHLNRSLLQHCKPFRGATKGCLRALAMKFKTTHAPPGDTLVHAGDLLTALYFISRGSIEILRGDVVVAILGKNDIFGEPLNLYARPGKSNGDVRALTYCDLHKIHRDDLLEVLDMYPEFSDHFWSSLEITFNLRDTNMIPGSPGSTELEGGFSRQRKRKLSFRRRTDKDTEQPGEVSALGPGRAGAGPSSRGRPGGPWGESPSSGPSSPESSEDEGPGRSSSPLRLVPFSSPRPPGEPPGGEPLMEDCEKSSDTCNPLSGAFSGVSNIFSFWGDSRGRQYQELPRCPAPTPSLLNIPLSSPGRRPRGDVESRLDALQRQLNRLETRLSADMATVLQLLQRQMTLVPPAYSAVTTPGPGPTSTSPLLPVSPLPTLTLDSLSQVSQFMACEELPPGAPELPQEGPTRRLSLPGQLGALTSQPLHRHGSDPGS

[6] = DRUGMATRIX: Glutamate, NMDA, Agonism radioligand binding (ligand: [3H] CGP-39653); format: cell membranes, Rattus norvegicus, Wistar, Cerebral cortex, Membrane; details: Not Active = under 50% inhibition at 10 µM
[7] = molecular target: T3, Calcitonin receptor (Homo sapiens, UniProt P30988); format: cell membranes, Membrane; details: t47d; also: in other assays of this panel Not Active means under 50% inhibition at 10 µM
T3 sequence (P30988 whole entry): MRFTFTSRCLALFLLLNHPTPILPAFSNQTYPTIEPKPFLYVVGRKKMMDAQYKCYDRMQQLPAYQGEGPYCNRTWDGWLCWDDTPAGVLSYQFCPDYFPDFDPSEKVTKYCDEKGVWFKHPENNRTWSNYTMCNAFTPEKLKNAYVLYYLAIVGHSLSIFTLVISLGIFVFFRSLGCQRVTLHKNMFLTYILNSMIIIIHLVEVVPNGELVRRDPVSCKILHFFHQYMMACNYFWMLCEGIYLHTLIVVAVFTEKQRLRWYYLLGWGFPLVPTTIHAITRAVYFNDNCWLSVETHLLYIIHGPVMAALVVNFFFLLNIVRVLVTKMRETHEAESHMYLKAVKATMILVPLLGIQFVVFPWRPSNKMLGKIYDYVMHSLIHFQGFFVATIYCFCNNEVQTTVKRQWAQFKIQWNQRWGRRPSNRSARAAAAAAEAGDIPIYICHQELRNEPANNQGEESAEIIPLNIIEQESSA

[8] = DRUGMATRIX: Interleukin IL-1 radioligand binding (ligand: [125I] interleukin 1beta); format: cell membranes, Membrane; details: nih3t3; Not Active = under 50% inhibition at 10 µM

COc1ccc(C2C(=O)c3ccccc3C2=O)cc1 [ANISINDIONE]
Not Active: IC50 [1] | IC50 [2] | IC50 [3] | IC50 [4] | IC50 [5] | Ki [5] | IC50 [6] | Ki [6] | IC50 [7] | IC50 [8] | Ki [8]

CC[C@H](C)[C@H]1O[C@]2(C=C[C@@H]1C)C[C@@H]1C[C@@H](C/C=C(\C)[C@@H](O[C@H]3C[C@H](OC)[C@@H](O[C@H]4C[C@H](OC)[C@@H](O)[C@H](C)O4)[C@H](C)O3)[C@@H](C)/C=C/C=C3\CO[C@@H]4[C@H](O)C(C)=C[C@@H](C(=O)O1)[C@]34O)O2.CO[C@H]1C[C@H](O[C@H]2[C@H](C)O[C@@H](O[C@@H]3/C(C)=C/C[C@@H]4C[C@@H](C[C@]5(C=C[C@H](C)[C@@H](C(C)C)O5)O4)OC(=O)[C@@H]4C=C(C)[C@@H](O)[C@H]5OC/C(=C\C=C\[C@@H]3C)[C@]54O)C[C@@H]2OC)O[C@@H](C)[C@@H]1O [ABAMECTIN]
Not Active: IC50 [1] | IC50 [2] | IC50 [3] | IC50 [4] | IC50 [5] | Ki [5] | IC50 [6] | Ki [6] | IC50 [7] | IC50 [8] | Ki [8]

CN/C(=N\CCSCc1nc[nH]c1C)NC#N [CIMETIDINE]
Not Active: IC50 [1] | IC50 [2] | IC50 [3] | IC50 [4] | IC50 [5] | Ki [5] | IC50 [6] | Ki [6] | IC50 [7] | IC50 [8] | Ki [8]

NYSTATIN
Not Active: IC50 [1] | Ki [1] | IC50 [2] | Ki [2] | IC50 [3] | Ki [3] | IC50 [4] | Ki [4] | IC50 [5] | Ki [5] | IC50 [6] | Ki [6] | IC50 [7] | Ki [7] | IC50 [8] | Ki [8]

CCCNCC(O)COc1ccccc1C(=O)CCc1ccccc1 (configuration not stated) [PROPAFENONE]
Not Active: IC50 [1] | IC50 [2] | IC50 [3] | IC50 [4] | IC50 [6] | Ki [6] | IC50 [7] | IC50 [8] | Ki [8]

COC(=O)Nc1nc2ccc([S+]([O-])c3ccccc3)cc2[nH]1 (configuration not stated) [OXFENDAZOLE]
Not Active: IC50 [1] | IC50 [2] | IC50 [3] | IC50 [4] | IC50 [5] | Ki [5] | IC50 [6] | Ki [6] | IC50 [7] | IC50 [8] | Ki [8]

CC[C@H]1CN2CCc3cc(OC)c(OC)cc3[C@@H]2C[C@@H]1C[C@H]1NCCc2cc(OC)c(OC)cc21 [EMETINE]
Not Active: IC50 [1] | IC50 [2] | IC50 [3] | IC50 [4] | IC50 [6] | Ki [6] | IC50 [7] | IC50 [8] | Ki [8]

COc1cc(N)c(Cl)cc1C(=O)NC1CCN(CCCOc2ccc(F)cc2)CC1OC (configuration not stated) [CISAPRIDE]
Not Active: IC50 [1] | IC50 [2] | IC50 [3] | IC50 [4] | IC50 [6] | Ki [6] | IC50 [7] | IC50 [8] | Ki [8]

COc1cc2nc(N3CCN(C(=O)c4ccco4)CC3)nc(N)c2cc1OC [PRAZOSIN]
Not Active: IC50 [1] | IC50 [2] | IC50 [3] | IC50 [4] | IC50 [6] | Ki [6] | IC50 [7] | IC50 [8] | Ki [8]

NCCCC(O)(P(=O)(O)O)P(=O)(O)O [ALENDRONIC ACID]
Not Active: IC50 [1] | IC50 [2] | IC50 [3] | IC50 [4] | IC50 [6] | Ki [6] | IC50 [7] | IC50 [8] | Ki [8]

CC1(C)S[C@@H]2[C@H](NC(=O)[C@H](N)c3ccccc3)C(=O)N2[C@H]1C(=O)O [AMPICILLIN]
Not Active: IC50 [1] | IC50 [2] | IC50 [3] | IC50 [4] | IC50 [6] | Ki [6] | IC50 [7] | IC50 [8] | Ki [8]

CCN(CC)CCOCCC1=CCC2CC1C2(C)C (configuration not stated) [MYRTECAINE]
Not Active: IC50 [1] | IC50 [2] | IC50 [3] | IC50 [4] | IC50 [6] | Ki [6] | IC50 [7] | IC50 [8] | Ki [8]

CN1[C@@H]2CC[C@H]1C[C@@H](OC(=O)C(CO)c1ccccc1)C2 (some centres not stated) [ATROPINE]
Not Active: IC50 [1] | IC50 [2] | IC50 [3] | IC50 [4] | IC50 [6] | Ki [6] | IC50 [7] | IC50 [8] | Ki [8]
